pIC50: −log10 of the molar value. One block for each molecule: values may come before it.
Columns and labels:
[1] = molecular target: T1, SMYD3 (Homo sapiens (Human), UniProt Q9H7B4); assay: SMYD3 biochemical assay (SPA, 3H-SAM methylation of MEKK2 protein substrate); details: for IC50: read-out: SMYD3 Biochem IC50 (μM)*
How it was run: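 Full-length native human SMYD3 (E. coli-expressed, tags removed) preincubated with compounds 30 min at room temperature, then reaction started with 3H-SAM and GST-tagged MEKK2 protein in 25 mM Tris-Cl pH 8.0, 1 mM TCEP, 0.005% BSG, 0.005% Tween 20. Quenched with unlabelled SAM (100 uM final); 3H-MEKK2 counted by SPA.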

[2] = molecular target: T1, SMYD3; assay: SMYD3 cell assay (Trimethyl-MEKK2 In-Cell Western in 293T/17 cells); format: cell-based; details: for IC50: read-out: SMYD3 Cell IC50 (μM)*
How it was run: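 In-Cell Western ratio of trimethyl-Lys260 MEKK2 to anti-flag signal; percent inhibition from DMSO and maximum-inhibition controls, IC50 by non-linear regression, triplicates.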

[3] = Table 2A, read-out: SMYD3 Biochem IC50
[4] = Table 2A, read-out: SMYD3 Cell IC50
[5] = average of n = 1 to n = 50, read-out: SMYD3 Biochem IC50
[6] = average of n = 1 to n = 50, read-out: SMYD3 Cell IC50

T1 sequence (Q9H7B4 whole entry): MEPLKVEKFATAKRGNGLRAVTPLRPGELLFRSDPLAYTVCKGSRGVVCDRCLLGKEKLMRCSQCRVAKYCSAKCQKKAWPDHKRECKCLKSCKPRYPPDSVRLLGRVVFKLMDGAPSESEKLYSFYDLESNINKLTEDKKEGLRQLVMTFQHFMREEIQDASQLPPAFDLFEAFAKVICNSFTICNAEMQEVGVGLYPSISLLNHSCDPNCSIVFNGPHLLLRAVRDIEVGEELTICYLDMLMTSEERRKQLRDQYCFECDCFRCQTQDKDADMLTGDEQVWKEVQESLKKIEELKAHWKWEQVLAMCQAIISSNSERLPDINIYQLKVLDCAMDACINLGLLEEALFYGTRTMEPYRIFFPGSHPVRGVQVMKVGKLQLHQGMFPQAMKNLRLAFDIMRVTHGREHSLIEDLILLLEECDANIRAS

SMILES: NC1C2CN(S(=O)(=O)N3[C@@H]4CC[C@H]3C[C@@H](NC(=O)c3cc(C5CC5)on3)C4)CC12 (stereo partly drawn) [compound 801, N-((1R,3r,5S)-8-((6-amino-3-azabicyclo[3.1.0]hexan-3-yl)sulfonyl)-8-azabicyclo[3.2.1]octan-3-yl)-5-cyclopropylisoxazole-3-carboxamide]
pIC50 ([1]; read-out: SMYD3 Biochem IC50*): 8.66
pIC50 ([2]; read-out: SMYD3 Cell IC50*): 7.56

SMILES: NCCCNc1ncccc1S(=O)(=O)N1[C@@H]2CCC[C@H]1C[C@@H](NC(=O)c1cc(C3CC3)on1)C2 [compound 734, N-((1R,3r,5S)-9-((2-((3-aminopropyl)amino)pyridin-3-yl)sulfonyl)-9-azabicyclo[3.3.1]nonan-3-yl)-5-cyclopropylisoxazole-3-carboxamide]
pIC50 [1, 5]: 6.35
pIC50 [2, 6]: 5.38

SMILES: CN(CCO)C1CCN(S(=O)(=O)N2[C@@H]3CC[C@H]2C[C@@H](NC(=O)c2cc(C4CC4)on2)C3)CC1 [compound 820, 5-cyclopropyl-N-((1R,3r,5S)-8-((4-((2-hydroxyethyl)(methyl)amino)piperidin-1-yl)sulfonyl)-8-azabicyclo[3.2.1]octan-3-yl)isoxazole-3-carboxamide]
pIC50 ([1]; read-out: SMYD3 Biochem IC50*): 8.49
pIC50 ([2]; read-out: SMYD3 Cell IC50*): 7.24

SMILES: O=C(N[C@H]1C[C@H]2CC[C@@H](C1)N2S(=O)(=O)N1CCC(N2CCCC2)CC1)c1cc(C2CC2)on1 [compound 906, 5-cyclopropyl-N-((1R,3r,5S)-8-((4-(pyrrolidin-1-yl)piperidin-1-yl)sulfonyl)-8-azabicyclo[3.2.1]octan-3-yl)isoxazole-3-carboxamide]
pIC50 ([1]; read-out: SMYD3 Biochem IC50*): 7.77
pIC50 ([2]; read-out: SMYD3 Cell IC50*): 6.64

SMILES: CN1CCC(N(C)S(=O)(=O)N2[C@@H]3CCC[C@H]2C[C@H](NC(=O)c2cc(C4CC4)on2)C3)CC1 [compound 718, 5-cyclopropyl-N-((1R,3s,5S)-9-(N-methyl-N-(1-methylpiperidin-4-yl)sulfamoyl)-9-azabicyclo[3.3.1]nonan-3-yl)isoxazole-3-carboxamide]
pIC50 [1, 5]: 6.51
pIC50 [2, 6]: 5.79

SMILES: C[C@@H]1CC(NC(=O)c2cc(C3CC3)on2)CCN1C(=O)C1CC2(CC(N)C2)C1 (stereo partly drawn) [compound 175, N-((2R)-1-(6-aminospiro[3.3]heptane-2-carbonyl)-2-methylpiperidin-4-yl)-5-cyclopropylisoxazole-3-carboxamide]
IC50 [1]: 0.274 µM
IC50 [2]: 0.983 µM

SMILES: O=C1Cc2cc(S(=O)(=O)N3[C@@H]4CC[C@H]3C[C@H](NC(=O)c3cc(C5CC5)on3)C4)ccc2N1 [compound 493, 5-cyclopropyl-N-((1R,3s,5S)-8-((2-oxoindolin-5-yl)sulfonyl)-8-azabicyclo[3.2.1]octan-3-yl)isoxazole-3-carboxamide]
pIC50 ([1]; Table 1A, IC50 values are an average of n = 1 to n = 50, read-out: SMYD3 Biochem IC50): 6.07
pIC50 ([2]; Table 1A, IC50 values are an average of n = 1 to n = 50, read-out: SMYD3 Cell IC50): 5.56

SMILES: O=C(N[C@H]1C[C@H]2CC[C@@H](C1)N2S(=O)(=O)NC1CCN[C@@H](Cc2ccccc2)C1)c1cc(C2CC2)on1 (stereo partly drawn) [compound 884, N-((1R,3S,5S)-8-(N-((2S)-2-benzylpiperidin-4-yl)sulfamoyl)-8-azabicyclo[3.2.1]octan-3-yl)-5-cyclopropylisoxazole-3-carboxamide]
pIC50 ([1]; read-out: SMYD3 Biochem IC50*): 7.92
pIC50 ([2]; read-out: SMYD3 Cell IC50*): 6.55

SMILES: C[C@@H]1C[C@H](NC(=O)c2cc(C3CC3)on2)CCN1C(=O)CC(CN)Cc1ccccc1 (stereo partly drawn) [compound 272, N-((2R,4R)-1-(4-amino-3-benzylbutanoyl)-2-methylpiperidin-4-yl)-5-cyclopropylisoxazole-3-carboxamide]
IC50 [1]: > 10 µM
IC50 ([2]; 293T/17 cells): > 40 µM

SMILES: CN1CCCC[C@@H]1CS(=O)(=O)N1[C@@H]2CC[C@H]1C[C@@H](NC(=O)c1cc(C3CC3)on1)C2 [compound 964, 5-cyclopropyl-N-((1R,3R,5S)-8-((((R)-1-methylpiperidin-2-yl)methyl)sulfonyl)-8-azabicyclo[3.2.1]octan-3-yl)isoxazole-3-carboxamide]
pIC50 ([1]; read-out: SMYD3 Biochem IC50*): 7.08
pIC50 ([2]; read-out: SMYD3 Cell IC50*): 6.35

SMILES: C[C@H]1CN(S(=O)(=O)CCCN)CC[C@@H]1NC(=O)c1cc(C2CC2)on1 [compound 385, N-((3S,4S)-1-((3-aminopropyl)sulfonyl)-3-methylpiperidin-4-yl)-5-cyclopropylisoxazole-3-carboxamide]
IC50 [1]: 0.0882 µM
pIC50 [2]: 5.91

SMILES: CN(CCN1CCCC1)C1CCN(S(=O)(=O)N2[C@@H]3CC[C@H]2C[C@@H](NC(=O)c2cc(C4CC4)on2)C3)CC1 [compound 917, 5-cyclopropyl-N-((1R,3r,5S)-8-((4-(methyl(2-(pyrrolidin-1-yl)ethyl)amino)piperidin-1-yl)sulfonyl)-8-azabicyclo[3.2.1]octan-3-yl)isoxazole-3-carboxamide]
pIC50 ([1]; read-out: SMYD3 Biochem IC50*): 7.60
pIC50 ([2]; read-out: SMYD3 Cell IC50*): 6.42

SMILES: CCc1cc(C(=O)N[C@H]2C[C@H]3CC[C@@H](C2)N3S(=O)(=O)c2ccc(C(C)(C)N)cc2)no1 [compound 970, N-((1R,3r,5S)-8-((4-(2-aminopropan-2-yl)phenyl)sulfonyl)-8-azabicyclo[3.2.1]octan-3-yl)-5-ethylisoxazole-3-carboxamide]
pIC50 ([1]; IC50 values are an average of n = 1 to n = 50, read-out: SMYD3 Biochem IC50*): 7.05
pIC50 ([2]; IC50 values are an average of n = 1 to n = 50, read-out: SMYD3 Cell IC50*): 6.13

The remaining lines, values ahead:

pIC50 ([1]; read-out: SMYD3 Biochem IC50*): 7.88
pIC50 ([2]; read-out: SMYD3 Cell IC50*): 6.62
SMILES: CC1CC(N)CCN1S(=O)(=O)N1CC[C@H](NC(=O)c2cc(C3CC3)on2)C[C@@H]1C (stereo partly drawn) [compound 890, N-((2S,4S)-1-((4-amino-2-methylpiperidin-1-yl)sulfonyl)-2-methylpiperidin-4-yl)-5-cyclopropylisoxazole-3-carboxamide]

pIC50 [1, 3]: 8.89
pIC50 [2, 4]: 7.14
SMILES: C[C@@H]1C[C@H](NC(=O)c2cc(C3CC3)on2)CCN1S(=O)(=O)CC1CCN(CCc2ccccc2)CC1 [compound 537, 5-cyclopropyl-N-((2R,4R)-2-methyl-1-(((1-phenethylpiperidin-4-yl)methyl)sulfonyl)piperidin-4-yl)isoxazole-3-carboxamide]

pIC50 [1, 3]: 8.04
pIC50 [2, 4]: 6.87
SMILES: C[C@H]1C[C@@H](NC(=O)c2cc(C3CC3)on2)CCN1S(=O)(=O)N1CC2CCC1CN2 (stereo partly drawn) [compound 577, N-((2S,4S)-1-((2,5-diazabicyclo[2.2.2]octan-2-yl)sulfonyl)-2-methylpiperidin-4-yl)-5-cyclopropylisoxazole-3-carboxamide]

pIC50 [1, 3]: 8.09
pIC50 [2, 4]: 6.97
SMILES: C[C@H]1C[C@@H](NC(=O)c2cc(C3CC3)on2)CCN1S(=O)(=O)CCCCN(C)C [compound 576, 5-cyclopropyl-N-((2S,4S)-1-((4-(dimethylamino)butyl)sulfonyl)-2-methylpiperidin-4-yl)isoxazole-3-carboxamide]

pIC50 ([1]; read-out: SMYD3 Biochem IC50*): 7.72
pIC50 ([2]; read-out: SMYD3 Cell IC50*): 6.73
SMILES: C[C@H]1C[C@@H](NC(=O)c2cc(C3CC3)on2)CCN1S(=O)(=O)[C@@H]1CCCNC1 [compound 910, 5-cyclopropyl-N-((2S,4S)-2-methyl-1-(((R)-piperidin-3-yl)sulfonyl)piperidin-4-yl)isoxazole-3-carboxamide]

pIC50 [1, 5]: 6.84
pIC50 [2, 6]: 5.71
SMILES: O=C(N[C@H]1CCN(S(=O)(=O)CC2CCNCC2)[C@H](Cc2ccccc2)C1)c1cc(C2CC2)on1 [compound 691, N-((2R,4S)-2-benzyl-1-((piperidin-4-ylmethyl)sulfonyl)piperidin-4-yl)-5-cyclopropylisoxazole-3-carboxamide]

pIC50 [1, 5]: 7.42
pIC50 [2, 6]: 6.24
SMILES: C[C@@H]1CN(S(=O)(=O)CCCN)[C@H](C)C[C@@H]1NC(=O)c1cc(C2CC2)on1 [compound 642, N-((2R,4S,5R)-1-((3-aminopropyl)sulfonyl)-2,5-dimethylpiperidin-4-yl)-5-cyclopropylisoxazole-3-carboxamide]

pIC50 [1, 5]: 7.01
pIC50 [2, 6]: 6.14
SMILES: C[C@H]1CN(S(=O)(=O)NC2CCN(C)CC2)CC[C@H]1NC(=O)c1cc(C2CC2)on1 [compound 667, 5-cyclopropyl-N-((3S,4R)-3-methyl-1-(N-(1-methylpiperidin-4-yl)sulfamoyl)piperidin-4-yl)isoxazole-3-carboxamide]

pIC50 [1, 5]: 6.93
pIC50 [2, 6]: 6.23
SMILES: C[C@H]1C[C@@H](NC(=O)c2cc(C3CC3)on2)CCN1S(=O)(=O)N1CCN(C)C(C)(C)C1 [compound 680, 5-cyclopropyl-N-((2S,4S)-2-methyl-1-((3,3,4-trimethylpiperazin-1-yl)sulfonyl)piperidin-4-yl)isoxazole-3-carboxamide]

IC50 [1]: 0.163 µM
IC50 ([2]; 293T/17 cells): 4.33 µM
SMILES: C[C@@H]1C[C@H](NC(=O)c2cc(C3CC3)on2)CCN1S(=O)(=O)c1ccc(N(C)CCN)nc1 [compound 463, N-((2R,4R)-1-((6-((2-aminoethyl)(methyl)amino)pyridin-3-yl)sulfonyl)-2-methylpiperidin-4-yl)-5-cyclopropylisoxazole-3-carboxamide]

IC50 [1]: 4.84 µM
IC50 ([2]; 293T/17 cells): 7.19 µM
SMILES: C[C@@H]1C[C@H](NC(=O)c2cc(C3CC3)on2)CCN1S(=O)(=O)c1ccccn1 [compound 293, 5-cyclopropyl-N-((2R,4R)-2-methyl-1-(pyridin-2-ylsulfonyl)piperidin-4-yl)isoxazole-3-carboxamide]

pIC50 [1, 5]: 6.68
pIC50 [2, 6]: 5.73
SMILES: CC1CN(S(=O)(=O)N2CC[C@H](NC(=O)c3cc(C4CC4)on3)C[C@@H]2C)CC(C)N1 (stereo partly drawn) [compound 701, 5-cyclopropyl-N-((2S,4S)-1-((3,5-dimethylpiperazin-1-yl)sulfonyl)-2-methylpiperidin-4-yl)isoxazole-3-carboxamide]
